{"source": "patent US12240853B2", "about": "“Compounds useful in HIV therapy” (GlaxoSmithKline Intellectual Property (No.2) Limited, priority 2019, dated 2025)", "assay": "Example 18 cynomolgus monkey PK study (SC and IM)", "type": "in vivo, cynomolgus monkeys", "conditions": "male, cynomolgus monkey, plasma, read-out: Example 18 plasma concentrations", "description": "Example 18 referenced herein was made in accordance with Synthesis B. Six male cynomolgus monkeys (+1 spare) were selected from the Testing Facility's colony of non-naïve animals. The animals were assigned to the study based on acceptable health as determined by a Testing Facility veterinarian. Six animals were selected and placed into two groups of three animals each. Fasting of the animals before or after dosing was not required.\n[…] […] The animals were manually restrained for dosing and were not sedated. The dose sites were clipped of hair and wiped with alcohol before dosing. All dosing was performed as detailed in the study protocol and was completed without incident.\nBlood samples were collected from the study animals as detailed in the sample collection Table 39 below.\nBlood samples were collected by venipuncture of a cephalic vein. For PK, blood was transferred to a blood collection tube containing NaF/Na2EDTA anticoagulant, mixed by inversion, and maintained on wet ice until processing. The blood samples were centrifuged at 2200×g for 10 minutes at 5° C. to isolate plasma. The resulting plasma samples were transferred to individual polypropylene tubes in a 96-well plate format and immediately placed on dry ice until storage at nominally −20° C. prior to shipment for analysis.\nThe PK plasma samples were analyzed approximately every two weeks by the Testing Facility to determine the concentration of Example 18 (prodrug) and parent using an LC-MS/MS Research Grade Assay (RGA-1) with sensitivity to 0.1 ng/mL. Following interim review of sample analysis data, analysis for Example 18 (prodrug) was discontinued after the Day 57 sample collections. The bioanalytical report and sample concentration data are presented in Tables 40 and 41, and mean concentration-time profiles are shown in FIGS. 29 and 30", "key": {"[1]": {"conditions": "intramuscular, 20 mg/kg equivalent of EFdA, IM 20 mg/kg equivalent of EFdA, Monkey 2001"}, "[2]": {"conditions": "intramuscular, 20 mg/kg equivalent of EFdA, IM 20 mg/kg equivalent of EFdA, Monkey 2002"}, "[3]": {"conditions": "intramuscular, 20 mg/kg equivalent of EFdA, IM 20 mg/kg equivalent of EFdA, Monkey 2003"}, "[4]": {"conditions": "sc, 20 mg/kg, SC 20 mg/kg equivalent of EFdA, Mean"}, "[5]": {"conditions": "sc, 20 mg/kg, SC 20 mg/kg equivalent of EFdA, Monkey 1001"}, "[6]": {"conditions": "sc, 20 mg/kg, SC 20 mg/kg equivalent of EFdA, Monkey 1002 (column 3)"}, "[7]": {"conditions": "sc, 20 mg/kg, SC 20 mg/kg equivalent of EFdA, Monkey 1002"}}, "note": "Like-named read-outs stand apart in the source and are kept apart here.", "data": [{"smiles": "C#C[C@]1(COC(=O)CCCCCCCCC)O[C@@H](n2cnc3c(N)nc(F)nc32)C[C@@H]1OC(=O)CCCCCCCCC", "note": "[Example 18, (2R,3S,5R)-5-(6-amino-2-fluoro-9H-purin-9-yl)-2-((decanoyloxy)methyl)-2-ethynyltetrahydrofuran-3-yl Decanoate]", "values": [{"measurement": "concentration at 0.208 days", "setting": "[1]", "result": 51.3, "unit": "ng/mL"}, {"measurement": "concentration at 0.292 days", "setting": "[1]", "result": 30.1, "unit": "ng/mL"}, {"measurement": "concentration at 1 days", "setting": "[1]", "result": 6.89, "unit": "ng/mL"}, {"measurement": "concentration at 2 days", "setting": "[1]", "result": 0.652, "unit": "ng/mL"}, {"measurement": "concentration at 3 days", "setting": "[1]", "result": 0.379, "unit": "ng/mL"}, {"measurement": "concentration at 8 days", "setting": "[1]", "result": 0.203, "unit": "ng/mL"}, {"measurement": "concentration at 10 days", "setting": "[1]", "result": 0.156, "unit": "ng/mL"}, {"measurement": "concentration at 17 days", "setting": "[1]", "result": 0.135, "unit": "ng/mL"}, {"measurement": "concentration at 19 days", "setting": "[1]", "result": 0.119, "unit": "ng/mL"}, {"measurement": "concentration at 22 days", "setting": "[1]", "result": 0.146, "unit": "ng/mL"}, {"measurement": "concentration at 29 days", "setting": "[1]", "result": 0.155, "unit": "ng/mL"}, {"measurement": "concentration at 0.021 days", "setting": "[2]", "result": 40.2, "unit": "ng/mL"}, {"measurement": "concentration at 0.042 days", "setting": "[2]", "result": 82.6, "unit": "ng/mL"}, {"measurement": "concentration at 0.125 days", "setting": "[2]", "result": 363, "unit": "ng/mL"}, {"measurement": "concentration at 0.208 days", "setting": "[2]", "result": 692, "unit": "ng/mL"}, {"measurement": "concentration at 0.292 days", "setting": "[2]", "result": 821, "unit": "ng/mL"}, {"measurement": "concentration at 1 days", "setting": "[2]", "result": 110, "unit": "ng/mL"}, {"measurement": "concentration at 2 days", "setting": "[2]", "result": 0.674, "unit": "ng/mL"}, {"measurement": "concentration at 3 days", "setting": "[2]", "result": 0.533, "unit": "ng/mL"}, {"measurement": "concentration at 8 days", "setting": "[2]", "result": 0.248, "unit": "ng/mL"}, {"measurement": "concentration at 10 days", "setting": "[2]", "result": 0.251, "unit": "ng/mL"}, {"measurement": "concentration at 17 days", "setting": "[2]", "result": 0.16, "unit": "ng/mL"}, {"measurement": "concentration at 19 days", "setting": "[2]", "result": 0.149, "unit": "ng/mL"}, {"measurement": "concentration at 22 days", "setting": "[2]", "result": 0.114, "unit": "ng/mL"}, {"measurement": "concentration at 25 days", "setting": "[2]", "result": 0.125, "unit": "ng/mL"}, {"measurement": "concentration at 29 days", "setting": "[2]", "result": 0.135, "unit": "ng/mL"}, {"measurement": "concentration at 0.021 days", "setting": "[3]", "result": 1.93, "unit": "ng/mL"}, {"measurement": "concentration at 0.042 days", "setting": "[3]", "result": 0.79, "unit": "ng/mL"}, {"measurement": "concentration at 0.125 days", "setting": "[3]", "result": 3.31, "unit": "ng/mL"}, {"measurement": "concentration at 0.208 days", "setting": "[3]", "result": 5.27, "unit": "ng/mL"}, {"measurement": "concentration at 0.292 days", "setting": "[3]", "result": 6.42, "unit": "ng/mL"}, {"measurement": "concentration at 1 days", "setting": "[3]", "result": 2.08, "unit": "ng/mL"}, {"measurement": "concentration at 2 days", "setting": "[3]", "result": 0.387, "unit": "ng/mL"}, {"measurement": "concentration at 3 days", "setting": "[3]", "result": 0.63, "unit": "ng/mL"}, {"measurement": "concentration at 8 days", "setting": "[3]", "result": 0.171, "unit": "ng/mL"}, {"measurement": "concentration at 10 days", "setting": "[3]", "result": 0.19, "unit": "ng/mL"}, {"measurement": "concentration at 17 days", "setting": "[3]", "result": 0.154, "unit": "ng/mL"}, {"measurement": "concentration at 19 days", "setting": "[3]", "result": 0.129, "unit": "ng/mL"}, {"measurement": "concentration at 22 days", "setting": "[3]", "result": 0.113, "unit": "ng/mL"}, {"measurement": "concentration at 25 days", "setting": "[3]", "result": 0.151, "unit": "ng/mL"}, {"measurement": "concentration at 46 days", "setting": "intramuscular, 20 mg/kg equivalent of EFdA, IM 20 mg/kg equivalent of EFdA, Monkey 2003, 46 days", "result": 0.105, "unit": "ng/mL"}, {"measurement": "concentration at 0.021 days", "setting": "[4]", "result": 0.235, "unit": "ng/mL"}, {"measurement": "concentration at 0.042 days", "setting": "[4]", "result": 0.905, "unit": "ng/mL"}, {"measurement": "concentration at 0.125 days", "setting": "[4]", "result": 3.94, "unit": "ng/mL"}, {"measurement": "concentration at 0.208 days", "setting": "[4]", "result": 4.95, "unit": "ng/mL"}, {"measurement": "concentration at 0.292 days", "setting": "[4]", "result": 4.53, "unit": "ng/mL"}, {"measurement": "concentration at 1 days", "setting": "[4]", "result": 1.12, "unit": "ng/mL"}, {"measurement": "concentration at 2 days", "setting": "[4]", "result": 0.405, "unit": "ng/mL"}, {"measurement": "concentration at 3 days", "setting": "[4]", "result": 0.312, "unit": "ng/mL"}, {"measurement": "concentration at 8 days", "setting": "[4]", "result": 0.117, "unit": "ng/mL"}, {"measurement": "concentration at 10 days", "setting": "[4]", "result": 129, "unit": "ng/mL"}, {"measurement": "concentration at 0.021 days", "setting": "[5]", "result": 49.4, "unit": "ng/mL"}, {"measurement": "concentration at 0.042 days", "setting": "[5]", "result": 70.3, "unit": "ng/mL"}, {"measurement": "concentration at 0.125 days", "setting": "[5]", "result": 149, "unit": "ng/mL"}, {"measurement": "concentration at 0.208 days", "setting": "[5]", "result": 92.8, "unit": "ng/mL"}, {"measurement": "concentration at 0.292 days", "setting": "[5]", "result": 146, "unit": "ng/mL"}, {"measurement": "concentration at 1 days", "setting": "[5]", "result": 36.5, "unit": "ng/mL"}, {"measurement": "concentration at 2 days", "setting": "[5]", "result": 0.734, "unit": "ng/mL"}, {"measurement": "concentration at 3 days", "setting": "[5]", "result": 0.694, "unit": "ng/mL"}, {"measurement": "concentration at 10 days", "setting": "[5]", "result": 0.146, "unit": "ng/mL"}, {"measurement": "concentration at 0.021 days", "setting": "[6]", "result": 0.133, "unit": "ng/mL"}, {"measurement": "concentration at 0.042 days", "setting": "[6]", "result": 0.179, "unit": "ng/mL"}, {"measurement": "concentration at 0.125 days", "setting": "[6]", "result": 2.29, "unit": "ng/mL"}, {"measurement": "concentration at 0.208 days", "setting": "[6]", "result": 1.91, "unit": "ng/mL"}, {"measurement": "concentration at 0.292 days", "setting": "[6]", "result": 2.38, "unit": "ng/mL"}, {"measurement": "concentration at 1 days", "setting": "[6]", "result": 0.641, "unit": "ng/mL"}, {"measurement": "concentration at 2 days", "setting": "[6]", "result": 0.579, "unit": "ng/mL"}, {"measurement": "concentration at 3 days", "setting": "[6]", "result": 0.396, "unit": "ng/mL"}, {"measurement": "concentration at 8 days", "setting": "[6]", "result": 0.131, "unit": "ng/mL"}, {"measurement": "concentration at 10 days", "setting": "[6]", "result": 0.146, "unit": "ng/mL"}, {"measurement": "concentration at 0.021 days", "setting": "[7]", "result": 0.337, "unit": "ng/mL"}, {"measurement": "concentration at 0.042 days", "setting": "[7]", "result": 1.63, "unit": "ng/mL"}, {"measurement": "concentration at 0.125 days", "setting": "[7]", "result": 5.59, "unit": "ng/mL"}, {"measurement": "concentration at 0.208 days", "setting": "[7]", "result": 7.99, "unit": "ng/mL"}, {"measurement": "concentration at 0.292 days", "setting": "[7]", "result": 6.67, "unit": "ng/mL"}, {"measurement": "concentration at 1 days", "setting": "[7]", "result": 1.6, "unit": "ng/mL"}, {"measurement": "concentration at 2 days", "setting": "[7]", "result": 0.23, "unit": "ng/mL"}, {"measurement": "concentration at 3 days", "setting": "[7]", "result": 0.228, "unit": "ng/mL"}, {"measurement": "concentration at 8 days", "setting": "[7]", "result": 0.102, "unit": "ng/mL"}, {"measurement": "concentration at 10 days", "setting": "[7]", "result": 0.111, "unit": "ng/mL"}]}]}
